Earlier results as cited in patent EP1691200A1, “The use of BNP-type peptides and ANP-type peptides for assessing the risk of suffering from a cardiovascular complication as a consequence of volume overload” (F. HOFFMANN-LA ROCHE AG, priority 2005, dated 2006).

CS(=O)(=O)c1ccc(C2=C(c3ccccc3)C(=O)OC2)cc1 [rofecoxib]
additional cardiovascular incidents (myocardial infarction, stroke) (25 mg rofecoxib compared with a placebo, after 18 months of follow-up): 16 per 1,000 treated patients | blood pressure levels (25 mg rofecoxib compared with a placebo, early post-observation phase): higher blood pressure levels | rise in the rate of serious thromboembolic incidents (APPROVE study, patients without any recognisable cardiovascular risk, led to premature discontinuation): 3.9 times
